Reference: patent publication US20200353038A1, “PIF-TRANSFECTED CELLS AND METHODS OF USE” (BIOINCEPT, LLC, priority 2013, published 2020)

Tests used:
HEK293 cells = experiment: Transient transfection in HEK293 cells, toxicity; format: cell-based, human; conditions: intracellular expression, cultured for more than 72 hrs
PBMCs = tested on: PBMCs
Text: Blood samples without identifiers were obtained from males and nonpregnant females after obtaining consent at MDSPS, WA. The studies were approved by the ethical committee at the institute. From the excess specimen, PBMCs were isolated using standard Ficoll Hypaque, a density gradient method. […] Samples were collected in duplicate at 24 and 48 hrs and used for global mRNA analysis.
After culture, PBMCs were collected and the chemically fragmented cRNA was then hybridized on Affymetrix HGU133 Plus 2.0 human chips in a GeneChip Hybridization Oven 640 (Affymetrix) and screened for 18,400 human genes and expressed-sequence tags, followed by fluorescence labeling with Fluidics Station 450 (Affymetrix) and optical scanning with an Affymetrix GeneChip Scanner 3000 (Codon Biosciences, LP, Houston, Tex.). P0.05 and >2-fold changes were considered as significant. Data is deposited at NCBI Geo (GSE18291).
For gene experiments, data was first analyzed using student's t-test, with p<0.05 results, followed by fold-change testing, with a cutoff 2-fold only reported.

[1] = target: Platelet-Derived Growth Factor-β(PDGFP) (Homo sapiens, UniProt P01127); conditions: ProtoArray
Platelet-Derived Growth Factor-β(PDGFP), sequence (P01127 82-190): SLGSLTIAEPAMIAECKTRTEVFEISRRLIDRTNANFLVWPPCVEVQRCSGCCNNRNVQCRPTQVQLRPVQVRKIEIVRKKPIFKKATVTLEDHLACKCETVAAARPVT
Experimental: (§1) Unbound probe was washed off, and arrays were assessed by a fluorescence microarray scanner. […] As a negative control, an array was incubated with wash buffer while calmodulin kinase was used as a positive control detected by Alexa Fluor 647-conjugated anti-VS antibody.

DAPK3, (ZIPK) = DAPK3, (ZIPK) (Homo sapiens, UniProt O43293); conditions: ProtoArray, minor binding target
DAPK3, (ZIPK), sequence (O43293 whole entry): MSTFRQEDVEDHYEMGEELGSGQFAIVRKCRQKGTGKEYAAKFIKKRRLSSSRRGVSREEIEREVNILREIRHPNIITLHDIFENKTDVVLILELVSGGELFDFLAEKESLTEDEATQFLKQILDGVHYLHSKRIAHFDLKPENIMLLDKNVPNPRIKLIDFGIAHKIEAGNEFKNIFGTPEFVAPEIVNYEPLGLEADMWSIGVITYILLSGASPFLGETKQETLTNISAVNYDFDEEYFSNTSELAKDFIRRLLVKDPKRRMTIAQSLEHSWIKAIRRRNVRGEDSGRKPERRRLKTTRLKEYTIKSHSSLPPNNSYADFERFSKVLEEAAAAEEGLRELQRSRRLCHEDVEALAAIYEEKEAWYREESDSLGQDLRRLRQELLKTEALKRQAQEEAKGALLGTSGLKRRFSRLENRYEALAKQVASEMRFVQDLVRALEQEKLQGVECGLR
Experimental: as §1

[2] = target: outer dense fiber of the sperm tail-2 (ODF2L) (Homo sapiens, UniProt Q9ULJ1); conditions: ProtoArray, minor binding target
outer dense fiber of the sperm tail-2 (ODF2L), sequence (Q9ULJ1 whole entry): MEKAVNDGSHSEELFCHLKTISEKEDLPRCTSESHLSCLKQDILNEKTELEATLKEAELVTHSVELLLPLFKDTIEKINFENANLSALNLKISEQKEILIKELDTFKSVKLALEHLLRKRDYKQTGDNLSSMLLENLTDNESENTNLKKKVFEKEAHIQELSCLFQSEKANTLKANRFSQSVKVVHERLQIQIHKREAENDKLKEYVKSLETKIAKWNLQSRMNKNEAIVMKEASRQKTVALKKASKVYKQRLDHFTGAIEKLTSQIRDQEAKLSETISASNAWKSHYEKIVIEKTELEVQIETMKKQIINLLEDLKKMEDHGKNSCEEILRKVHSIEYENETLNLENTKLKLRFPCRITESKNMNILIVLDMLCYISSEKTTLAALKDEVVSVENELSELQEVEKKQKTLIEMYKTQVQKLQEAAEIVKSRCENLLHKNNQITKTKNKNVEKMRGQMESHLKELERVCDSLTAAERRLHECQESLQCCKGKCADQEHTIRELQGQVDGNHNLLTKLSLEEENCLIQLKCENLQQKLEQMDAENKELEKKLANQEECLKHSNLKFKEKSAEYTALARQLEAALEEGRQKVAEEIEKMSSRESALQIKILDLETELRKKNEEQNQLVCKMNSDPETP
Experimental: as §1

ITK = ITK (Homo sapiens, UniProt Q08881); conditions: ProtoArray
ITK, sequence (Q08881 whole entry): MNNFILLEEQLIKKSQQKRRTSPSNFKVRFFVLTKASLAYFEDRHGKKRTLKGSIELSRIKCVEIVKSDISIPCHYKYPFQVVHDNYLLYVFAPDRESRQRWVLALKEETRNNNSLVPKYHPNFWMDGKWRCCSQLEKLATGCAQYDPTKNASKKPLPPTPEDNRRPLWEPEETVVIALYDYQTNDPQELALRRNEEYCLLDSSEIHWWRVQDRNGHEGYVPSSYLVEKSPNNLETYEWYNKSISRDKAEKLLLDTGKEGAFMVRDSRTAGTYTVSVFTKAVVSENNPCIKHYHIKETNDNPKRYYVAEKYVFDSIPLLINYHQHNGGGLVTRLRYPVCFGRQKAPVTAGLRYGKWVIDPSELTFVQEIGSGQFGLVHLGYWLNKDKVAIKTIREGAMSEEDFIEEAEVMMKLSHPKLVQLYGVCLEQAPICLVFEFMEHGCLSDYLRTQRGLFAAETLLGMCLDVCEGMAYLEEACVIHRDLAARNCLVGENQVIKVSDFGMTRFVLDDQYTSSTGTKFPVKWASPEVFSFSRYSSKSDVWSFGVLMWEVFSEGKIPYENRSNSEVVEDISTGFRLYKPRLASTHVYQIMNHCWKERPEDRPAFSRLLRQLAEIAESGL
Experimental: as §1

[3] = target: Tissue-Specific Transplantation Antigen P35 (FX Enzyme) (Homo sapiens, UniProt Q13630); conditions: ProtoArray
Tissue-Specific Transplantation Antigen P35 (FX Enzyme), sequence (Q13630 whole entry): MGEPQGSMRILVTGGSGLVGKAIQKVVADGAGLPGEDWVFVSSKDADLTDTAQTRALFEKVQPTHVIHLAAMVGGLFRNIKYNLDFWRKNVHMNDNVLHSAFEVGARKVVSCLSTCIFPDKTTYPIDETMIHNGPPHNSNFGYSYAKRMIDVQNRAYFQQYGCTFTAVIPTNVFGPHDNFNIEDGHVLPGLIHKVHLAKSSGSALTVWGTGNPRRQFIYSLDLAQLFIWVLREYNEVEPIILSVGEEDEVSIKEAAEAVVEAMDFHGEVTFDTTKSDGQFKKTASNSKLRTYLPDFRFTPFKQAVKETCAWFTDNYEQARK
Experimental: as §1

Clorf87 = Clorf87 (Homo sapiens, UniProt Q8N0U7); conditions: ProtoArray, minor binding target
Clorf87, sequence (Q8N0U7 whole entry): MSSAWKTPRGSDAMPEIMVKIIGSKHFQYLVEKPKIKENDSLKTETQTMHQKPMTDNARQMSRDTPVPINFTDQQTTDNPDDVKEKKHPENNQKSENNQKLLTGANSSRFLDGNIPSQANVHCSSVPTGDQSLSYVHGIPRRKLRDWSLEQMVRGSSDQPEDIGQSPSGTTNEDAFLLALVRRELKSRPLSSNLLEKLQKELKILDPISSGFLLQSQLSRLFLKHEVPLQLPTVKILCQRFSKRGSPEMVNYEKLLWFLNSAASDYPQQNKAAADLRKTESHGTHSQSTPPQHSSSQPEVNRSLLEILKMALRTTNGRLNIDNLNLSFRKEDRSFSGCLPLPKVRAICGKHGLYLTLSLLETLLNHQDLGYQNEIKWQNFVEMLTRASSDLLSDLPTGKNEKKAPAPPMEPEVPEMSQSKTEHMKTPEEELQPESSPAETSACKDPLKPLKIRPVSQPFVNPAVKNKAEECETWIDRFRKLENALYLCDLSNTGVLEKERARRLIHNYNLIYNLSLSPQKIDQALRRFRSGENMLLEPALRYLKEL
Experimental: as §1

Cass4 = Cass4 (Homo sapiens, UniProt Q9NQ75); conditions: ProtoArray, minor binding target
Cass4, sequence (Q9NQ75 whole entry): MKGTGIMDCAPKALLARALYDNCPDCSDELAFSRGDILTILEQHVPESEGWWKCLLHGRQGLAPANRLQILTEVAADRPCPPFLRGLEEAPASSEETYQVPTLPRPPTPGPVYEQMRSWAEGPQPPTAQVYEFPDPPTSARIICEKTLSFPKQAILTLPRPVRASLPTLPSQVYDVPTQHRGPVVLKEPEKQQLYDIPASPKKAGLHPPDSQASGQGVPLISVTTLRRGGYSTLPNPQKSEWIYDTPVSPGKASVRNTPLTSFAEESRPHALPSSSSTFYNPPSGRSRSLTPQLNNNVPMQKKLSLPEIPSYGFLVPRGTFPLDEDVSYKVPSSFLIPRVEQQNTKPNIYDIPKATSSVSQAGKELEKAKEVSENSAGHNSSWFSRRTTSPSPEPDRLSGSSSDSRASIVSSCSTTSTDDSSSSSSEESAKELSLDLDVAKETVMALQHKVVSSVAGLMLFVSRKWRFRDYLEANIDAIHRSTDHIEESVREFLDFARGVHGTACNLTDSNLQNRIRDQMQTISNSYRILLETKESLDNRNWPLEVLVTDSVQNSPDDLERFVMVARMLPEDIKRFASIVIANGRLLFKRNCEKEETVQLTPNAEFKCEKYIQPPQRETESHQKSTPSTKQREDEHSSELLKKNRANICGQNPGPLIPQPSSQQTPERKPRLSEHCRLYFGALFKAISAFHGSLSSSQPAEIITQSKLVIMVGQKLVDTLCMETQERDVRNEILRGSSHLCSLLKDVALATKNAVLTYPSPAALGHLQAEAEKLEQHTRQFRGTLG
Experimental: as §1

NEK11 = NEK11 (Homo sapiens, UniProt Q8NG66); conditions: ProtoArray, minor binding target
NEK11, sequence (Q8NG66 whole entry): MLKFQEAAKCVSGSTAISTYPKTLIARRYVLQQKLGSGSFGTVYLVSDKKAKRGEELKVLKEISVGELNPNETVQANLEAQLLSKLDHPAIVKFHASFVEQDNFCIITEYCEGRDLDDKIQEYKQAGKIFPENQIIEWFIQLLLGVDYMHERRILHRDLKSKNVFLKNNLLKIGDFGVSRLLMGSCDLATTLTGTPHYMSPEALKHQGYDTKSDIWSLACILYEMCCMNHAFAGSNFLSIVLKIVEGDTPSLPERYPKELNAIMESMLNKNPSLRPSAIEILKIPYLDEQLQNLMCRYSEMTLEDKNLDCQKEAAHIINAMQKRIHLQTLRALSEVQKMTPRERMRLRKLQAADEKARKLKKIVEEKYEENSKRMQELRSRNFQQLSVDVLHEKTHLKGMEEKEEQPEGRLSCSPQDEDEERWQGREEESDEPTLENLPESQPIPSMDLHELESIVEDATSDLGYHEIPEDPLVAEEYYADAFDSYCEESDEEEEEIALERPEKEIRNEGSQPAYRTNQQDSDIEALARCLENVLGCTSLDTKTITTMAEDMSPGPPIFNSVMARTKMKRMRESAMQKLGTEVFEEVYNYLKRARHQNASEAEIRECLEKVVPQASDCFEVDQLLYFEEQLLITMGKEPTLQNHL
Experimental: as §1

Kv1.3b = experiment: ProtoArray binding, Kv1.3b; design: species or system human
Kv1.3b, sequence (Q13303 40-367 limits assumed): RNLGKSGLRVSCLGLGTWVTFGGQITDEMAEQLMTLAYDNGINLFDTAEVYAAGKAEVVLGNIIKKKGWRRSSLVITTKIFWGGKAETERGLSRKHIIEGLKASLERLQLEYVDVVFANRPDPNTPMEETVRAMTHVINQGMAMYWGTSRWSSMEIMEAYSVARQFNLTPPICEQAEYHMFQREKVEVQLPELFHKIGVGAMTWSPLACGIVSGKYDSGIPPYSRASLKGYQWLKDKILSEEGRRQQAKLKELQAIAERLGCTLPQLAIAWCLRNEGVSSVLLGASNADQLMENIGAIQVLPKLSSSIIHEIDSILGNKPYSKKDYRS

IDE = target: T1, IDE (Homo sapiens, UniProt P14735); experiment: ProtoArray binding, IDE
T1 construct: purchased Invitrogen

female Swiss mice = conditions: Alzet pump subcutaneously, PIF 4.2 mg/ml (1 mg/kg/die), read days 14-16 pi
Experimental: 30 Swiss female mice and 30 Swiss male mice, 8-10 weeks old, were matched overnight for three consecutive days. The next morning, the presence of a vaginal plug was verified. 20 female Swiss mice positive for the vaginal plug were selected for the experiment.
Mice at days 1-3 post-insemination (pi) were anesthetized with ketamine and domitor 200 μl. […] The mice were located singularly in separated cages. […] At days 6-8 pi, the mice were treated with LPS […] or with PBS. At days 14-16 pi, the mice were euthanized and investigated for vital fetuses and for aborts. Mice with no vital fetuses nor signs of abortion were considered to carry 10 aborts for statistical purposes. The groups were compared with Fisher exact test, p<0.05 was considered significant (FIG. 22).

[4] = tested on: 9000 human protein targets; experiment: Alexa-PIF interaction with ProtoArray Human Protein Microarrays v5.0; format: binding; conditions: PIF-Alexa 647 250 nM and 2.5 pM; protein not named
[5] = cell state not given, PIF 50 nM
[6] = following co-activation (anti-CD3/anti-CD28), PIF 50 nM
[7] = naive cells (by context), PIF 50 nM
[8] = naive cells, PIF 50 nM, up to 48 hrs

Substance: DYKDDDDKGGGMVRIKPGSANKPSDDGGYPYDVPDYA (FLAG-(Gly)2-PIF-(Gly)2-HA) [FLAG-HA tagged PIF peptide]
- toxicity or cell death of transfected cells (HEK293 cells): without signs of toxicity or cell death

Substance: MVRIKPGSANKPSDD [PIF]
- IDE encoding gene expression (PBMCs; PBMCs exposed to PIF): not affected
- Kv1.3b channel genes expression (PBMCs; PBMCs exposed to PIF): only minimally affected
- six additional macropain genes family members, expression (FIG. 21) (PBMCs; PBMCs, PIF 50 nM): upregulated
- ADAM 17 gene expression (PBMCs; activated cells (by context), PIF 50 nM): −2.2 fold
- CDC42 gene expression (PBMCs; activated cells, PIF 50 nM): −2.2 fold
- MCM2 gene expression (PBMCs; activated cells, PIF 50 nM): 2.8 fold
- SPEC 1 gene expression (PBMCs; activated cells, PIF 50 nM): −2.2 fold
- TSTA3 (FX) gene expression (PBMCs; activated cells, PIF 50 nM): 3.6 fold
- cell division cycle 25A (CDC25A) gene expression (PBMCs; activated cells, PIF 50 nM): 6 fold
- osteonectin gene expression (PBMCs; activated cells, PIF 50 nM): −2.2 fold
- H2A O/L gene expression (decrease) (PBMCs; [5]): 2 fold
- H2A gene expression (decrease) (PBMCs; [5]): 4.2 fold
- H3F3A gene expression (PBMCs; [5]): −3 fold
- ATP1B1 gene expression (PBMCs; following activation, PIF 50 nM): −2.4 fold
- IGFBP6 gene expression (PBMCs; [6]): −2.4 fold
- UDP-glucose dehydrogenase (UGDH) gene expression (PBMCs; [6]): −2 fold
- insulin receptor (INSR) gene expression (PBMCs; [6]): −2.8 fold
- macropain 26S subunit, non-ATPase, 10 (PSMD10) gene expression (PBMCs; [6]): 2.4 fold
- SCN12 gene expression (PBMCs; [7]): 5.4 fold
- SCNA1 (Na+ voltage-gated Al) gene expression (PBMCs; [7]): 7.8 fold
- ITK expression, in words (PBMCs; naive cells as printed (last sentence of b342)): mildly decreased
- ITK gene expression (PBMCs; naive cells, PIF 50 nM): 1.6 fold
- K+ channel (KCNK4) gene expression (PBMCs; naive cells, PIF 50 nM): 2.8 fold
- IGF-binding protein-3 (IGF219 BP3) gene expression (PBMCs; [8]): 4.6 fold
- insulin-like growth factor-1 (IGF1) gene expression (PBMCs; [8]): 2.8 fold
- binding to PDGFb, in words [1]: Targets
- binding to DAPK3 (ZIPK), in words (DAPK3, (ZIPK)): targets
- binding to ODF2L, in words [2]: observed
- binding to ITK, in words (ITK): Targets
- binding to FX enzyme, in words [3]: Targets
- binding to Clorf87, in words (Clorf87): target
- binding to Cass4, in words (Cass4): target
- binding to NEK11, in words (NEK11): bind
- binding to Kv1.3b channels, in words (Kv1.3b; ProtoArray): targets
- binding to IDE, in words (IDE; ProtoArray): prime PIF peptide target
- LPS-induced abortion (female Swiss mice; LPS 0.1 pg/gr days 6-8 pi): decreases
- anesthesia-induced abortion (female Swiss mice; ketamine and domitor): prevents

Substance: PIF-Alexa 647: Alexafluor647 conjugate of synthetic PIF (MVRIKPGSANKPSDD)
- Z score (Kv1.3b; Kv1.3b two variants, PIF-Alexa 647 250 nM and 2.5 pM): greater than 2
- Z score (IDE; PIF-Alexa 647 250 nM and 2.5 pM): greater than 2
- Z-Score of one of the 11 interacting proteins [4]: greater than 3
